Read-outs that look alike come from different tables or passages of the source.
Experiments:
human OATP1B3 = target: T1, human OATP1B3 (Homo sapiens, UniProt Q9NPD5); experiment: Cellular uptake in OATP1B3-overexpressing HEK293 cells; type: in vitro ADME; conditions: 5 µM, 2.5 min incubation, HEK293 OATP1B3
T1 construct: Werner Siegmund and Dr. Markus Keiser (University of Greifswald); host or cells: HEK293
T1 sequence (Q9NPD5 1-702): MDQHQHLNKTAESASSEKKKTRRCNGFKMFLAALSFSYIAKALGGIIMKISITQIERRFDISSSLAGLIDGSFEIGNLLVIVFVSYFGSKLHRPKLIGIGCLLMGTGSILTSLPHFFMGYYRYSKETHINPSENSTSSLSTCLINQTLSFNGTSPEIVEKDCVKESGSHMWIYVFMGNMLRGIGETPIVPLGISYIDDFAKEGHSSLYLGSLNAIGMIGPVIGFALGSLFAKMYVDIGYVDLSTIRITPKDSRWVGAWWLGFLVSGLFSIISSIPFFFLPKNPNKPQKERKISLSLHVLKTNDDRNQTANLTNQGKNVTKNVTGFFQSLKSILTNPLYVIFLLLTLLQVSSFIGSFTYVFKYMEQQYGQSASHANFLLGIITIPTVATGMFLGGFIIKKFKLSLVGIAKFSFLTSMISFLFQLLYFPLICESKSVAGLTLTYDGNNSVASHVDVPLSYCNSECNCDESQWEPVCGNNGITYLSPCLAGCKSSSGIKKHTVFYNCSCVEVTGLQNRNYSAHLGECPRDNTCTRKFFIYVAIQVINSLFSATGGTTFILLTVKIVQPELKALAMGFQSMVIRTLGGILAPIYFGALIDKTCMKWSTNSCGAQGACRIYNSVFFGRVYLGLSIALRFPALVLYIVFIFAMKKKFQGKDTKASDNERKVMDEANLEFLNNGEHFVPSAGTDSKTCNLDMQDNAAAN
Procedure: HEK293 cells, vector-transfected or human (h)SLCO1A2, hSLCO1B1 or hSLCO1B3 cDNA-transfected were kind gifts from Prof. Werner Siegmund and Dr. Markus Keiser (University of Greifswald, Greifswald, Germany). All the HEK293 cell lines were maintained in DMEM supplemented with 10% (v/v) FBS, 1% penicillin–streptomycin mix at 37 °C in 5% (v/v) CO2 and 500 μg/mL G418. Cells were first seeded in 12-well plates [coated with 50 mg/L poly (l-lysine) and 50 mg/L poly (l-ornithine)] at a density of 1.0 × 10^5 cells/well. For the uptake study, in order to induce the expression of OATP transporters, the cell culture medium was replaced with culture medium supplemented with 5 mM sodium butyrate 24 h before performing the uptake assay.
The uptake transport study was performed as described previously. […] The Krebs–Henseleit solution was prepared from Krebs–Henseleit-buffer modified powder and supplemented with 25 mM NaHCO3 and 2.5 mM CaCl2 adjusted to pH 6.4 with 1 M HCL. At 2.5 min, the incubation buffer was removed, and uptake was terminated by adding 1 mL of ice-cold Krebs–Henseleit buffer, followed by two times washing with 1 mL of ice-cold Krebs–Henseleit buffer. […] The cellular protein amount was determined by the Bradford method using 10 μL of the cell lysates with bovine serum albumin as a standard.

[1] = 4 h main pharmacokinetic experiment in wild-type, Abcb1a/1b-/-, Abcg2-/- and Abcb1a/1b;Abcg2-/- mice; type: in vivo; conditions: 10 mg/kg oral, 4 h main experiment; for Cmax / Tmax / concentration at 4 h / AUC(0-t): mouse; for Cmax / Tmax / AUC(0-t): plasma; for concentration at 4 h / AUC(0-t): male, po, 10 mg/kg; for AUC(0-t): read-out: AUC0–4h
Procedure: Mice were housed and handled according to institutional guidelines complying with Dutch and EU legislation. All experimental animal protocols were evaluated and approved by the institutional animal care and use committee. Wild-type, Abcb1a/1b^-/-, Abcg2^-/-, Abcb1a/1b; Abcg2^-/-, Slco1a/1b^-/- male mice, and Cyp3a^-/- and Cyp3aXAV female mice, all of a >99% FVB genetic background, were used between 9 and 16 weeks of age. […] All experimental animal protocols (WP9450, 9669, 9760), including power calculations, designed under the nationally approved DEC/CCD project AVD301002016595, were evaluated and approved by the institutional animal care and use committee of The Netherlands Cancer Institute. […]
For the 4 h transporter experiments, tail-vein blood samples were collected at 0.125, 0.25, 0.5, 1, and 2 h time points after oral administration, respectively. For the CYP3A 8 h experiments, tail-vein blood sampling was performed at 0.25, 0.5, 1, 2, and 4 h, respectively. While for elacridar inhibition experiments, tail-vein blood samples were collected at 0.125, 0.25, 0.5, and 1 h time points after oral administration, respectively. Blood sample collection was performed using microvettes containing dipotassium EDTA. At the last time point in each experiment (2, 4 or 8 h), mice were anesthetized with 5% isoflurane and blood was collected by cardiac puncture. Blood samples were collected in Eppendorf tubes containing heparin as an anticoagulant. The mice were then sacrificed by cervical dislocation and brain, liver, kidney, lung, small intestine and testis were rapidly removed. Plasma was isolated from the blood by centrifugation at 9000× g for 6 min at 4 °C, and the plasma fraction was collected and stored at −30 °C until analysis. Organs were homogenized with 4% (w/v) bovine serum albumin and stored at −30 °C until analysis.
Pharmacokinetic parameters were calculated by noncompartmental methods using the PK solver software. The area under the plasma concentration–time curve (AUC) was calculated using the trapezoidal rule, without extrapolating to infinity. The peak plasma concentration (Cmax) and the time of maximum plasma concentration (Tmax) were estimated from the original (individual mouse) data. One-way analysis of variance (ANOVA) was used when multiple groups were compared and the Tukey post hoc correction was used to accommodate multiple testing. The two-sided unpaired Student’s t-test was used when treatments or differences between two specific groups were compared using the software GraphPad Prism 8 (GraphPad Software Inc., La Jolla, CA, USA). All the data were log-transformed before statistical tests were applied. Differences were considered statistically significant when p < 0.05. All data are presented as geometric mean ± SD.

[2] = FVB (Abcb1a/1b-/-), male Abcb1a/1b-/- mice
[3] = FVB (Abcb1a/1b;Abcg2-/-), male Abcb1a/1b;Abcg2-/- mice
[4] = FVB (Abcg2-/-), male Abcg2-/- mice
[5] = FVB (wild-type), male wild-type mice

## COc1ccc(CN2C3CC2CN(c2ccc(-c4cc(OCC(C)(C)O)cn5ncc(C#N)c45)cn2)C3)cn1 [selpercatinib]
Human OATP1B3
  uptake compared to vector control cells: did not observe any significant increase in the uptake
[1]; [2]
  Cmax: 10300 ng/mL
  Tmax: 1.8 ± 1.3 h
[1]; [3]
  Cmax: 11000 ng/mL
  Tmax: 1.5 ± 1.3 h
  AUC(0-t): 39000 ng·h/mL
[1]; [4]
  Cmax: 11400 ng/mL
  Tmax: 1.4 ± 0.74 h
[1]; [5]
  Cmax: 6910 ± 761 ng/mL
  Tmax: 1.6 ± 1.4 h
[1]; male Abcb1a/1b-/- mice
  SIC percentage of dose: 1.1 ± 0.3%
[1]; male Abcb1a/1b;Abcg2-/- mice
  SIC percentage of dose: 0.69 ± 0.52 %
[1]; male Abcg2-/- mice
  SIC percentage of dose: 1.6 ± 0.7 %
[1]; male wild-type mice
  SIC percentage of dose: 2.3 ± 0.9%
[1]; FVB (Abcb1a/1b-/-), brain, male Abcb1a/1b-/- mice, read-out: Cbrain
  concentration at 4 h: 2000 ± 233 ng/g
[1]; FVB (Abcb1a/1b;Abcg2-/-), brain, male Abcb1a/1b;Abcg2-/- mice, read-out: Cbrain
  concentration at 4 h: 4260 ± 853 ng/g
[1]; FVB (Abcg2-/-), brain, male Abcg2-/- mice, read-out: Cbrain
  concentration at 4 h: 418 ± 102 ng/g
[1]; FVB (wild-type), brain, male wild-type mice, read-out: Cbrain
  concentration at 4 h: 420 ± 66 ng/g
[1]; FVB, liver, male Abcb1a/1b-/- mice, read-out: CLiver
  concentration at 4 h: 34000 ng/g
[1]; FVB, liver, male Abcb1a/1b;Abcg2-/- mice, read-out: CLiver
  concentration at 4 h: 23200 ng/g
[1]; FVB, liver, male Abcg2-/- mice, read-out: CLiver
  concentration at 4 h: 19300 ng/g
[1]; FVB, liver, male wild-type mice, read-out: CLiver
  concentration at 4 h: 25700 ng/g
[1]; FVB, male Abcb1a/1b-/- mice
  AUC(0-t): 37000 ng·h/mL
[1]; FVB, male Abcg2-/- mice
  AUC(0-t): 39100 ng·h/mL
[1]; FVB, male wild-type mice
  AUC(0-t): 23700 ng·h/mL
[1]; FVB, small intestine contents, male Abcb1a/1b-/- mice, read-out: CSIC (small intestine contents concentration)
  concentration at 4 h: 69400 ng/g
[1]; FVB, small intestine contents, male Abcb1a/1b;Abcg2-/- mice, read-out: CSIC (small intestine contents concentration)
  concentration at 4 h: 27400 ng/g
[1]; FVB, small intestine contents, male Abcg2-/- mice, read-out: CSIC (small intestine contents concentration)
  concentration at 4 h: 91700 ng/g
[1]; FVB, small intestine contents, male wild-type mice, read-out: CSIC (small intestine contents concentration)
  concentration at 4 h: 98100 ng/g
[1]; FVB, small intestine, male Abcb1a/1b-/- mice, read-out: CSI (small intestine tissue concentration)
  concentration at 4 h: 17000 ng/g
[1]; FVB, small intestine, male Abcb1a/1b;Abcg2-/- mice, read-out: CSI (small intestine tissue concentration)
  concentration at 4 h: 11600 ng/g
[1]; FVB, small intestine, male Abcg2-/- mice, read-out: CSI (small intestine tissue concentration)
  concentration at 4 h: 13000 ng/g
[1]; FVB, small intestine, male wild-type mice, read-out: CSI (small intestine tissue concentration)
  concentration at 4 h: 21600 ng/g
[1]; FVB, testis, male Abcb1a/1b-/- mice, read-out: Ctestis
  concentration at 4 h: 3480 ± 634 ng/g
[1]; FVB, testis, male Abcb1a/1b;Abcg2-/- mice, read-out: Ctestis
  concentration at 4 h: 8330 ± 935 ng/g
[1]; FVB, testis, male Abcg2-/- mice, read-out: Ctestis
  concentration at 4 h: 1050 ± 192 ng/g
[1]; FVB, testis, male wild-type mice, read-out: Ctestis
  concentration at 4 h: 811 ± 148 ng/g
